Data as given in publication PMC4070716 (Journal of Medicinal Chemistry, 2014).
“Also recorded” adds a separate entry of the source. Like-named read-outs stand apart in the source and are kept apart here. Marks after values point to notes of the source that are not given here.

Key:
human μ opioid receptor [1] = target: T1, human μ opioid receptor (Homo sapiens, UniProt P35372); experiment: [35S]GTPγS binding assay, intrinsic; assay type: biochemical
human κ opioid receptor [2] = target: T2, human κ opioid receptor (Homo sapiens, UniProt P41145); experiment: [35S]GTPγS binding assay, intrinsic; assay type: biochemical
human δ opioid receptor [3] = target: T3, human δ opioid receptor (Homo sapiens, UniProt P41143); experiment: [35S]GTPγS binding assay, intrinsic; assay type: biochemical
human δ opioid receptor [4] = target: T3, human δ opioid receptor; experiment: Inhibition of DPDPE-stimulated [35S]GTPγS binding; assay type: biochemical; settings: for Ke (nM) δ, DPDPE: cloned human δ receptor in CHO cells, mean ± SE, at least three experiments
human κ opioid receptor [5] = target: T2, human κ opioid receptor; experiment: Inhibition of U69,593-stimulated [35S]GTPγS binding; assay type: biochemical; settings: for fold more potent antagonist than N-methyl counterpart, κ receptor: ratio of Ke values (a vs b analogue)
human μ opioid receptor [6] = target: T1, human μ opioid receptor; experiment: Inhibition of DAMGO-stimulated [35S]GTPγS binding; assay type: biochemical; settings: for fold more potent antagonist than N-methyl counterpart, μ receptor: ratio of Ke values (a vs b analogue)
μ receptor = settings: mouse writhing test, μ antagonism; cited from earlier work
human μ opioid receptor [7] = target: T1, human μ opioid receptor; settings: cloned human μ receptor; data taken from ref 15; cited from earlier work
human δ opioid receptor [8] = target: T3, human δ opioid receptor; settings: cloned human δ receptor; data taken from ref 15; cited from earlier work
opioid receptor [9] = settings: cited from earlier work
κ receptor = settings: mouse writhing test, κ antagonism; cited from earlier work
opioid receptor [10] = settings: cited from earlier work; remark: listed apart in the source

T3 sequence (P41143 whole entry): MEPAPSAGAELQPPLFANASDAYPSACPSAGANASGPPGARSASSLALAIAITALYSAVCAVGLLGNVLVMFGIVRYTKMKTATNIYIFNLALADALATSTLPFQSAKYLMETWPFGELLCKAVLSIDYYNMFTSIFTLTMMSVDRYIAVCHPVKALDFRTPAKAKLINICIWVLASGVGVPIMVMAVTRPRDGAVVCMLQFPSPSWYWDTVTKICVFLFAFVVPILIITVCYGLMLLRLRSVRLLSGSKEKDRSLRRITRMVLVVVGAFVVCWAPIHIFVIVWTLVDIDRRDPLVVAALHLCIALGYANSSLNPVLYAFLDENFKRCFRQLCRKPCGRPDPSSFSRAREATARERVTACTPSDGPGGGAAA
T2 sequence (P41145 whole entry): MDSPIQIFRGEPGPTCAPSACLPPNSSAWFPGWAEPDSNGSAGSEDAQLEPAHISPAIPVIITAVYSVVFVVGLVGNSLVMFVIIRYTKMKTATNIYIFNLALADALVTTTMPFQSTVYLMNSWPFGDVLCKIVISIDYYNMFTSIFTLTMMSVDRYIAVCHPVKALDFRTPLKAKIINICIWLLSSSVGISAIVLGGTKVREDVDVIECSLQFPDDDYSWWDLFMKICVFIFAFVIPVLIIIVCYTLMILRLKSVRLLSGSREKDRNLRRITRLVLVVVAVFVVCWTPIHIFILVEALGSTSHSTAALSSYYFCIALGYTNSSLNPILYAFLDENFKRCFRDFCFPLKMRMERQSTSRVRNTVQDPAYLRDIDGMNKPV
T1 sequence (P35372 whole entry): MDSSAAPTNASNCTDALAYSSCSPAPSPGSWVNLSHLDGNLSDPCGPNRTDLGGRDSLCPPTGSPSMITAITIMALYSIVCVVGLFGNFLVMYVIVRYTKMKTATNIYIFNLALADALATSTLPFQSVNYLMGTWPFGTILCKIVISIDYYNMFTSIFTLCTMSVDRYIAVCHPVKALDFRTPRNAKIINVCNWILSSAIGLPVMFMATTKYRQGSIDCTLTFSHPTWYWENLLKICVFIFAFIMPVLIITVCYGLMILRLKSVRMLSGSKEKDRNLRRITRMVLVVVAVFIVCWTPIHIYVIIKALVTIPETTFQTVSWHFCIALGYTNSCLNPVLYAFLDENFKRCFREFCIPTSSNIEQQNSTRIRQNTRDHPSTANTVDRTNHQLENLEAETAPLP

| SMILES | agonist activity at 10 μM, μ receptor (human μ opioid receptor [1]) | agonist activity at 10 μM, κ receptor (human κ opioid receptor [2]) | agonist activity at 10 μM, δ receptor (human δ opioid receptor [3]) | Kb (human κ opioid receptor [5]) | Kb (human μ opioid receptor [6]) | Kb (human δ opioid receptor [4]) | other results |
| --- | --- | --- | --- | --- | --- | --- | --- |
| Oc1cccc(N2CCN(CCCc3ccccc3)CC2)c1 [Compound 8b, 3-[4-(3-Phenylpropyl)piperazin-1-yl]phenol] | no opioid agonist efficacy | no opioid agonist efficacy | no opioid agonist efficacy | 36.8 ± 16.8 nM |  |  | fold more potent antagonist than N-methyl counterpart, δ receptor (human δ opioid receptor [4]; ratio of Ke values (a vs b analogue)): 47 fold; fold more potent antagonist than N-methyl counterpart, μ receptor (human μ opioid receptor [6]): 507 fold |
| C[C@H]1CN(CCCc2ccccc2)CC[C@@]1(C)c1cccc(O)c1 [Compound 2b, 3-[(3R,4R)-3,4-Dimethyl-1-(3-phenylpropyl)piperidin-4-yl]phenol] |  |  |  | 0.88 ± 0.17 nM |  |  | AD50, antagonist of morphine-induced antinociception (μ receptor): 0.28 mg/kg; Ke (nM) μ, DAMGO (human μ opioid receptor [7]): 0.1 ± 0.02 ^b nM; Ke (nM) δ, DPDPE (human δ opioid receptor [8]): 0.9 ± 0.32 ^b nM |
| CN1CCC(C)(c2cccc(O)c2)CC1 [Compound 6a, 3-(1,4-Dimethylpiperidin-4-yl)phenol] |  |  |  | 477 ± 150 nM | 974 ± 230 nM |  | EC50 (human δ opioid receptor [3]): 8300 nM; Ke (nM) δ, DPDPE (human δ opioid receptor [4]): agonist ^c |
| C[C@H]1CN(C)CC[C@@]1(C)c1cccc(O)c1 [Compound 2a, 3-[(3R,4R)-1,3,4-Trimethylpiperidin-4-yl]phenol] | no opioid agonist efficacy | no opioid agonist efficacy | no opioid agonist efficacy | 134 ± 27.1 nM |  |  | AD50, antagonist of morphine-induced antinociception (μ receptor): 0.74 mg/kg; Ke (nM) μ, DAMGO (human μ opioid receptor [7]): 29.3 ± 3.4 ^b nM; opioid receptor agonist activity in the rat tail heat analgesic test (opioid receptor [9]): did not have any opioid receptor agonist activity; Ke (nM) δ, DPDPE (human δ opioid receptor [8]): 681 ± 241 ^b nM; AD50, antagonist of U50,488-induced antinociception (κ receptor): > 5.0 mg/kg; opioid receptor agonist activity in the mouse writhing test (opioid receptor [10]): did not have any opioid receptor agonist activity |
| CN1CCC(c2cccc(O)c2)CC1 [Compound 7a, 3-(1-Methylpiperidin-4-yl)phenol] | no agonist activity | no agonist activity | no agonist activity | 2700 ± 1300 nM |  |  | Ke (nM) δ, DPDPE (human δ opioid receptor [4]): inactive; also recorded: no antagonist properties; also recorded: IA ^d; Ke (nM) μ, DAMGO (human μ opioid receptor [6]; cloned human μ receptor in CHO cells, mean ± SE, at least three experiments): inactive; also recorded: no antagonist properties; also recorded: IA ^d |
| CN1CCN(c2cccc(O)c2)CC1 [Compound 8a, 3-(4-Methylpiperazin-1-yl)phenol] | no opioid agonist efficacy | no opioid agonist efficacy | no opioid agonist efficacy |  | 4300 ± 1700 nM | 1600 ± 480 nM |  |
| CC1CN(CCCc2ccccc2)CCC1c1cccc(O)c1 (stereo not drawn) [Compound 5b, 3-[3-Methyl-1-(3-phenylpropyl)piperidin-4-yl]phenol] | no agonist efficacy | no agonist efficacy | no agonist efficacy | 16.5 ± 5 nM | 11.9 ± 2 nM | 46 ± 18 nM | fold more potent antagonist than N-methyl counterpart, κ receptor (human κ opioid receptor [5]): 79 fold; fold more potent antagonist than N-methyl counterpart, μ receptor (human μ opioid receptor [6]): 105 fold |
| CC1CN(C)CCC1c1cccc(O)c1 (stereo not drawn) [Compound 5a, 3-(1,3-Dimethylpiperidin-4-yl)phenol] |  |  |  | 1310 ± 447 nM | 1250 ± 423 nM |  |  |
| C[C@H]1CN(C)CCN1c1cccc(O)c1 [Compound 4a, 3-[(2S)-2,4-Dimethylpiperazin-1-yl]phenol] | no opioid agonist efficacy | no opioid agonist efficacy | no opioid agonist efficacy |  |  |  | Ke (nM) δ, DPDPE (human δ opioid receptor [4]): no antagonism; also recorded: IA ^d |
| CC1(c2cccc(O)c2)CCN(CCCc2ccccc2)CC1 [Compound 6b, 3-[4-Methyl-1-(3-phenylpropyl)piperidin-4-yl]phenol] | no agonist efficacy | no agonist efficacy | no agonist efficacy | 21.3 ± 9 nM | 5.5 ± 0.59 nM | 178 ± 47 nM | fold more potent antagonist than N-methyl counterpart, κ receptor (human κ opioid receptor [5]): 22 fold; fold more potent antagonist than N-methyl counterpart, μ receptor (human μ opioid receptor [6]): 177 fold |
| C[C@H]1CN(CCCc2ccccc2)CCN1c1cccc(O)c1 [Compound 4b, 3-[(2S)-2-Methyl-4-(3-phenylpropyl)piperazin-1-yl]phenol] | no opioid agonist efficacy | no opioid agonist efficacy | no opioid agonist efficacy |  |  |  |  |
| Oc1cccc(C2CCN(CCCc3ccccc3)CC2)c1 [Compound 7b, 3-[1-(3-Phenylpropyl)piperidin-4-yl]phenol] | no agonist efficacy | no agonist efficacy | no agonist efficacy | 5.8 ± 2 nM | 75.6 ± 21 nM | 418 ± 120 nM |  |
